The test system of experiment [1] is human pleural mesothelioma cells NCI-H226. The experiment is described as follows: Cell anti-proliferation experiment (CCK8), NCI-H226. The format is cell-based. A digest of the protocol:
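Viability was measured by CCK-8 (3 h, A450) after 3-day treatment with 0.15–333.33 nM compound in 0.1% DMSO medium. Curve-fitted IC50 was based on viability normalised to no-drug and cell-free controls.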

Another experiment deals with YAP-TEAD. The experiment is described as follows: YAP-TEAD inhibitor activity by Nano luciferase method (8xGTiiC-nLuc reporter in 293T cells). To be noted: Homo sapiens, HEK-293T, 48 hours incubation, read-out: Nano-luciferase detection (IC50). In kind it is cell-based. Summed up: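 293T cells transiently transfected with pGL3B-8xGTiiC-nLuc-CMV-fLuc, seeded 2000 cells/well, then treated 48 h at 37 °C with compounds in 1:3.16 dilution series (top 10,000 nM). Nano luciferase signal read after cell lysis; IC50 from percent of 0 nM control.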

pIC50: −log10 of the molar value. A value given as a limit tells only on which side of the number the result lay.

For `Cc1cccc2c1c(=O)n(-c1ccc(C(F)(F)F)cc1)c1ccc(C(=O)N[C@@H](C)c3ccccn3)cc21` [Example T-257], the pIC50 (in experiment [1]; in the experiment with YAP-TEAD) was at least 6.00 each time.

For `C[C@H](NC(=O)c1ccc2c(c1)c1c(F)cccc1c(=O)n2-c1ccc(C(F)(F)F)cc1)c1ccccn1` [Example T-258], the pIC50 (in experiment [1]; in the experiment with YAP-TEAD) was at least 6.00 each time.

With `C[C@H](NC(=O)c1ccc2c(c1)c1cc(F)ccc1c(=O)n2-c1ccc(C(F)(F)F)cc1)c1ccccn1` [Example T-259], the pIC50 (in experiment [1]; with YAP-TEAD) was at least 6.00 in each case.

`C[C@H](NC(=O)c1ccc2c(c1)c1ccc(F)cc1c(=O)n2-c1ccc(C(F)(F)F)cc1)c1ccccn1` [Example T-260]: the pIC50 in experiment [1] was at least 6.00; with YAP-TEAD, 5.30 to 6.00.

`C[C@H](NC(=O)c1ccc2c(c1)c1cccc(F)c1c(=O)n2-c1ccc(C(F)(F)F)cc1)c1ccccn1` [Example T-261]: the values for the pIC50 (in experiment [1]; in the experiment on YAP-TEAD) were at least 6.00 and 5.30 to 6.00, respectively.

With `C[C@H](NC(=O)c1ccc2c(c1)c1c(c(=O)n2-c2ccc(C(F)(F)F)nc2)CCC1)c1ccccn1` [Example T-262], the pIC50 (in experiment [1]; in the experiment on YAP-TEAD) was at least 6.00 in each case.

Turning to `C[C@H](NC(=O)c1ccc2c(c1)c1c(c(=O)n2-c2ccc(C(F)(F)F)nc2)CCCC1)c1ccccn1` [Example T-263], the pIC50 (in experiment [1]; in the experiment on YAP-TEAD) was at least 6.00 throughout.

In the case of `C[C@H](NC(=O)c1ccc2c(c1)c1cscc1c(=O)n2-c1ccc(C(F)(F)F)nc1)c1ccccn1` [Example T-264], the pIC50 (in experiment [1]; with YAP-TEAD) was at least 6.00 each time.

`CNS(=O)(=O)c1ccc2c(c1)c1cscc1c(=O)n2-c1ccc(C(F)(F)F)cc1` [Example T-265]: the pIC50 (in experiment [1]; with YAP-TEAD) was at least 6.00 throughout.

Consider `C[C@H](NC(=O)c1ccc2c(c1)c1c(c(=O)n2C2CCC(F)(F)CC2)CCC1)c1ccccn1` [Example T-266], for which the pIC50 (in experiment [1]; with YAP-TEAD) was at least 6.00 each time.

On to `C[C@H](NC(=O)c1ccc2c(c1)c1c(c(=O)n2C2CCC(F)(F)CC2)CCCC1)c1ccccn1` [Example T-267], for which the pIC50 (in experiment [1]; in the experiment on YAP-TEAD) was at least 6.00 each time.

As to `C[C@H](NC(=O)c1ccc2c(c1)c1ccccc1c(=O)n2C1CCC(F)(F)CC1)c1ccccn1` [Example T-268], the pIC50 (in experiment [1]; with YAP-TEAD) was at least 6.00 throughout.

Take `C[C@H](NC(=O)c1ccc2c(c1)-c1cscc1CN2C1CCC(C(F)(F)F)CC1)c1ccccn1` (some centres unmarked) [Example T-269]: the pIC50 (in experiment [1]; in the experiment with YAP-TEAD) was at least 6.00 each time.

Turning to `C[C@H](NC(=O)c1ccc2c(c1)c1nn(C)cc1c(=O)n2Cc1ccc(C(F)(F)F)cc1)c1ccccn1` [Example T-270], the pIC50 (in experiment [1]; in the experiment on YAP-TEAD) was at least 6.00 throughout.

For the compound `C[C@H](NC(=O)c1ccc2c(c1)c1nn(C)cc1c(=O)n2Cc1ccccc1)c1ccccn1` [Example T-271], the pIC50 (in experiment [1]; with YAP-TEAD) was at least 6.00 in each case.

Consider `C[C@H](NC(=O)c1ccc2c(c1)c1cscc1c(=O)n2-c1ccc(S(F)(F)(F)(F)F)cc1)c1ccccn1` [Example T-274], for which the pIC50 (in experiment [1]; in the experiment on YAP-TEAD) was at least 6.00 throughout.

As to `Cc1c(Br)c(=O)n(-c2ccc(C(F)(F)F)cc2)c2ccc(C(=O)N[C@@H](C)c3ccccn3)cc12` [Example T-278], the pIC50 (in experiment [1]; with YAP-TEAD) was at least 6.00 throughout.

For `Cc1c(-c2ccccc2)c(=O)n(-c2ccc(C(F)(F)F)cc2)c2ccc(C(=O)N[C@@H](C)c3ccccn3)cc12` [Example T-279], the values for the pIC50 (in experiment [1]; in the experiment with YAP-TEAD) were at least 6.00 and 5.30 to 6.00, respectively.

Take `C=CC(=O)Nc1ccc2c(c1)c(C)cc(=O)n2-c1ccc(C(F)(F)F)cc1` [Example T-280]: the pIC50 (in experiment [1]; with YAP-TEAD) was at least 6.00 in each case.

As for `CC1c2ccccc2-c2cc(C(=O)N[C@@H](C)c3ccccn3)ccc2N1c1ccc(C(F)(F)F)cc1` (some centres unmarked) [Example T-281], the pIC50 (in experiment [1]; with YAP-TEAD) was at least 6.00 in each case.

Regarding `C[C@H](NC(=O)c1ccc2c(c1)C1CCCC1CN2c1ccc(C(F)(F)F)cc1)c1ccccc1` (some centres unmarked) [Example T-283], the pIC50 (in experiment [1]; in the experiment with YAP-TEAD) was 5.30 to 6.00 each time.

For `C=CC(=O)N[C@@H](C)c1c(C)c2ccccc2n(-c2ccc(C(F)(F)F)cc2)c1=O` [Example T-284], the pIC50 (in experiment [1]; in the experiment with YAP-TEAD) was 5.30 to 6.00 in each case.

With `C=CC(=O)NC(C)c1c(C)c2ccccc2n(-c2ccc(C(F)(F)F)cc2)c1=O` (centres unmarked) [Example T-285], the pIC50 (in experiment [1]; in the experiment with YAP-TEAD) was 5.30 to 6.00 each time.

Consider `C[C@H](NC(=O)c1ccc2c(c1)c1cocc1c(=O)n2-c1ccc(C(F)(F)F)cc1)c1ccccn1` [Example T-286], for which the pIC50 (in experiment [1]; in the experiment on YAP-TEAD) was at least 6.00 in each case.

As to `C[C@H](NC(=O)c1ccc2c(c1)c1c(c(=O)n2-c2ccc(C(F)(F)F)cc2)CN(C)C1)c1ccccn1` [Example T-287], the pIC50 (in experiment [1]; with YAP-TEAD) was at least 6.00 each time.

Consider `Cc1occ2c(=O)n(-c3ccc(C(F)(F)F)cc3)c3ccc(C(=O)N[C@@H](C)c4ccccn4)cc3c12` [Example T-288], for which the pIC50 (in experiment [1]; in the experiment on YAP-TEAD) was at least 6.00 in each case.

Take `Cc1oc(C)c2c1c(=O)n(-c1ccc(C(F)(F)F)cc1)c1ccc(C(=O)N[C@@H](C)c3ccccn3)cc21` [Example T-289]: the pIC50 (in experiment [1]; in the experiment with YAP-TEAD) was at least 6.00 each time.

Consider `C[C@H](NC(=O)c1ccc2c(c1)c1c(c(=O)n2-c2ccc(C(F)(F)F)cc2)CCC1F)c1ccccn1` (some centres unmarked) [Example T-290], for which the pIC50 (in experiment [1]; with YAP-TEAD) was at least 6.00 each time.

On to `C[C@H](NC(=O)c1ccc2c(c1)c1c(c(=O)n2-c2ccc(C(F)(F)F)cc2)CC(F)C1)c1ccccn1` (some centres unmarked) [Example T-291], for which the pIC50 (in experiment [1]; in the experiment on YAP-TEAD) was at least 6.00 each time.

With `C[C@H](NC(=O)c1ccc2c(c1)c1c(c(=O)n2-c2ccc(C(F)(F)F)cc2)C(F)CC1)c1ccccn1` (some centres unmarked) [Example T-292], the pIC50 (in experiment [1]; with YAP-TEAD) was at least 6.00 in each case.

As to `C[C@H](NC(=O)c1ccc2c(c1)c1c(c(=O)n2-c2ccc(C(F)(F)F)cc2)CCC1(F)F)c1ccccn1` [Example T-293], the pIC50 (in experiment [1]; with YAP-TEAD) was at least 6.00 in each case.

Turning to `C[C@H](NC(=O)c1ccc2c(c1)c1c(c(=O)n2-c2ccc(C(F)(F)F)cc2)CC(F)(F)C1)c1ccccn1` [Example T-294], the pIC50 (in experiment [1]; in the experiment with YAP-TEAD) was at least 6.00 each time.

Take `C[C@H](NC(=O)c1ccc2c(c1)c1c(c(=O)n2-c2ccc(C(F)(F)F)cc2)C(F)(F)CC1)c1ccccn1` [Example T-295]: the pIC50 (in experiment [1]; in the experiment on YAP-TEAD) was at least 6.00 each time.

In the case of `Cc1scc2c(=O)n(-c3ccc(C(F)(F)F)cc3)c3ccc(C(=O)N[C@@H](C)c4ccccn4)cc3c12` [Example T-296], the negative logarithm of the IC50 (pIC50) (in experiment [1]; in the experiment with YAP-TEAD) was at least 6.00 in each case.

Take `Cc1scc2c1c(=O)n(-c1ccc(C(F)(F)F)cc1)c1ccc(C(=O)N[C@@H](C)c3ccccn3)cc21` [Example T-297]: the pIC50 (in experiment [1]; in the experiment with YAP-TEAD) was at least 6.00 each time.

For the compound `C[C@H](NC(=O)c1ccc2c(c1)c1c(F)scc1c(=O)n2-c1ccc(C(F)(F)F)cc1)c1ccccn1` [Example T-298], the pIC50 (in experiment [1]; in the experiment on YAP-TEAD) was at least 6.00 each time.

For the compound `C[C@H](NC(=O)c1ccc2c(c1)c1csc(F)c1c(=O)n2-c1ccc(C(F)(F)F)cc1)c1ccccn1` [Example T-299], the pIC50 (in experiment [1]; in the experiment on YAP-TEAD) was at least 6.00 each time.

The term pIC50 denotes −log10 of the IC50, conventionally taken in molar units.

The values are drawn from patent publication US20250154105A1, “POLYCYCLIC COMPOUND AND USE THEREOF” (TYK MEDICINES, INC., priority 2021, published 2025).
